The numbers were not newly measured in US20100240621A1, “TOPICAL PHARMACEUTICAL COMPOSITION FOR THE COMBINATION OF FUSIDIC ACID AND A CORTICOSTEROID” (priority 2007, published 2010), which cites them from elsewhere.

The conditions of series [1]: in vivo.
For series [2] the following is noted: solution, cream, and ointment formulations.
The test system of series [3] is oxacillin-resistant staphylococcus aureus. The conditions noted are these: at a concentration of 2 mg/L.
Series [4] relates to oxacillin-sensitive staphylococcus aureus. As to conditions: at a concentration of 0.12 mg/L.
The test system of series [5] is staphylococcus epidermidis. The conditions noted are these: at 4 mg/L.

Regarding `CCC(=O)O[C@]1(C(=O)CCl)[C@@H](C)C[C@H]2[C@@H]3C[C@H](F)C4=CC(=O)C=C[C@]4(C)[C@@]3(F)[C@@H](O)C[C@@]21C` [Halobetasol propionate], the “applied dose entering the circulation” value in [1] was “less than 6%”. Also, the “potency class by vasoconstrictor assay” value in [2] is reported as “super high-potency”.

Take `CC(=O)O[C@H]1C[C@@]2(C)[C@@H](C[C@@H](O)[C@H]3[C@@]4(C)CC[C@@H](O)[C@@H](C)[C@@H]4CC[C@@]32C)/C1=C(\CCC=C(C)C)C(=O)O` [Fusidic acid]: in series [3], the “oxacillin-resistant staphylococcus aureus inhibited” value is reported as “At least 99%”. For the same compound, the “concentration at which 90% of organisms inhibited” value in the series on most Bacteroides species, with Peptococcus species, in the series with Clostridium species and in the series with Propionibacterium Danes was no more than 2 mg/L in each case. Moreover, the “oxacillin-sensitive staphylococcus aureus inhibited” value in series [4] is listed as 100%. For the same compound, the staphylococcus epidermidis inhibited in series [5] is reported as 99%.
